Source: ChEMBL document CHEMBL5579840, “Optimization of diastereomeric dihydropyridines as antimalarials” (Eur J Med Chem, 2024)

Key:
[1] = system: Plasmodium falciparum; assay: Antimalarial activity against chloroquine-sensitive Plasmodium falciparum 3D7 infected in erythroctes incubated for 72 hrs by SYBR green 1 based spectrofluorometer; assay type: functional, organism-based, Erythrocyte
[2] = Cytotoxicity against mouse J774.A1 cells; assay type: toxicity, cell-based
[3] = system: Plasmodium falciparum; assay: Antimalarial activity against chloroquine-resistant Plasmodium falciparum K1 infected in erythroctes incubated for 72 hrs by SYBR green 1 based spectrofluorometer; assay type: functional, organism-based, Erythrocyte
[4] = Plasmodium falciparum, 3D7, Erythrocyte, 72 h
[5] = Plasmodium falciparum, K1, Erythrocyte, 72 h

## CCOC(=O)C1=C(C)NC2=C(C(=O)OC(c3ccc(OC)c(OC)c3)C2)C1c1cccc(C)c1 (stereo not given)
[1]; [4]
  EC50: > 10 µM
[2]
  EC50: > 20 µM
[3]; [5]
  EC50: > 10 µM

## CCOC(=O)C1=C(C)NC2=C(C(=O)OC(c3ccc(OC)c(OC)c3)C2)C1c1ccc2ccccc2c1 (stereo not given)
[1]; [4]
  EC50: > 10 µM
[2]
  EC50: > 20 µM
[3]; [5]
  EC50: > 10 µM

## CCOC(=O)C1=C(C)NC2=C(C(=O)OC(c3ccc(OC)c(OC)c3)C2)C1c1cccc2ccccc12 (stereo not given)
[1]; [4]
  EC50: > 10 µM
[2]
  EC50: > 20 µM
[3]; [5]
  EC50: > 10 µM

## CCOC(=O)C1=C(C)NC2=C(C(=O)OC(c3ccc(OC)c(OC)c3)C2)C1c1cccc(Cl)c1 (stereo not given)
[1]; [4]
  EC50: > 10 µM
[2]
  EC50: > 20 µM
[3]; [5]
  EC50: > 10 µM

## CCOC(=O)C1=C(C)NC2=C(C(=O)OC(c3cccc(Cl)c3)C2)C1c1ccccc1Cl (stereo not given)
[1]; [4]
  EC50: > 6 µM
[2]
  EC50: > 20 µM
[3]; [5]
  EC50: > 6 µM

## CCOC(=O)C1=C(C)NC2=C(C(=O)OC(c3ccc(OC)c(OC)c3)C2)C1c1ccc(-c2ccccc2)cc1 (stereo not given)
[1]; [4]
  EC50: > 10 µM
[2]
  EC50: > 20 µM
[3]; [5]
  EC50: > 10 µM

## CCOC(=O)C1=C(C)NC2=C(C(=O)OC(c3ccc(OC)c(OC)c3)C2)C1c1ccc(OC)cc1 (stereo not given)
[1]; [4]
  EC50: > 10 µM
[2]
  EC50: > 20 µM
[3]; [5]
  EC50: > 10 µM

## CCOC(=O)C1=C(C)NC2=C(C(=O)OC(c3ccccc3C)C2)C1c1ccccc1Cl (stereo not given)
[1]; [4]
  EC50: > 5 µM
[2]
  EC50: > 20 µM
[3]; [5]
  EC50: > 5 µM

## CCOC(=O)C1=C(C)NC2=C(C(=O)OC(c3ccc(OC)c(OC)c3)C2)C1c1cccc(OC)c1 (stereo not given)
[1]; [4]
  EC50: > 10 µM
[2]
  EC50: > 20 µM
[3]; [5]
  EC50: > 10 µM

## CCOC(=O)C1=C(C)NC2=C(C(=O)OC(c3ccc(OC)c(OC)c3)C2)C1c1ccccc1 (stereo in doubt; 1A)
[1]; erythrocyte
  EC50: > 7.4 µM
[2]
  EC50: > 20 µM
[3]; erythrocyte
  EC50: > 7.4 µM

## CCOC(=O)C1=C(C)NC2=C(C(=O)CC(c3ccc(OC)c(OC)c3)C2)C1c1ccccc1Cl (stereo in doubt; 2A)
[1]; erythrocyte
  EC50: 0.165 µM
[2]
  EC50: > 20 µM
[3]; erythrocyte
  EC50: 0.141 µM

## CCOC(=O)C1=C(C)NC2=C(C(=O)OC(c3ccc(OC)c(OC)c3)C2)C1c1ccccc1Cl (stereo in doubt; 3A)
[1]; erythrocyte
  EC50: 2.33 µM
[2]
  EC50: > 20 µM
[3]; erythrocyte
  EC50: 1.39 µM

## CCOC(=O)C1=C(C)NC2=C(C(=O)OC(c3ccc(OC)c(OC)c3)C2)C1c1ccc(Cl)cc1 (stereo in doubt; 5A)
[1]; erythrocyte
  EC50: 0.769 µM
[2]
  EC50: > 20 µM
[3]; erythrocyte
  EC50: 0.633 µM

## CCOC(=O)C1=C(C)NC2=C(C(=O)OC(c3ccc(OC)c(OC)c3)C2)C1c1ccccc1C (stereo in doubt; 6A)
[1]; erythrocyte
  EC50: 1.27 µM
[2]
  EC50: > 20 µM
[3]; erythrocyte
  EC50: 2.05 µM

## CCOC(=O)C1=C(C)NC2=C(C(=O)OC(c3ccc(OC)c(OC)c3)C2)C1c1ccc(C)cc1 (stereo in doubt; 8A)
[1]; erythrocyte
  EC50: > 10 µM
[2]
  EC50: > 20 µM
[3]; erythrocyte
  EC50: > 10 µM

## CCOC(=O)C1=C(C)NC2=C(C(=O)OC(c3ccc(OC)c(OC)c3)C2)C1c1ccccc1OC (stereo in doubt; 9A)
[1]; erythrocyte
  EC50: > 5.6 µM
[2]
  EC50: > 20 µM
[3]; [5]
  EC50: > 5.6 µM

## CCOC(=O)C1=C(C)NC2=C(C(=O)OC(c3ccc(OC)c(OC)c3)C2)C1c1ccc(Br)cc1 (stereo in doubt; 12A)
[1]; erythrocyte
  EC50: 1.45 µM
[2]
  EC50: > 20 µM
[3]; erythrocyte
  EC50: 3.37 µM

## CCOC(=O)C1=C(C)NC2=C(C(=O)OC(c3ccc(OC)c(OC)c3)C2)C1c1ccc([N+](=O)[O-])cc1 (stereo in doubt; 13A)
[1]; erythrocyte
  EC50: > 10 µM
[2]
  EC50: > 20 µM
[3]; erythrocyte
  EC50: > 10 µM

## CCOC(=O)C1=C(C)NC2=C(C(=O)OC(c3ccccc3)C2)C1c1ccccc1Cl (stereo in doubt; 17A)
[1]; [4]
  EC50: > 9.5 µM
[2]
  EC50: > 20 µM

## CCOC(=O)C1=C(C)NC2=C(C(=O)OC(c3ccccc3Cl)C2)C1c1ccccc1Cl (stereo in doubt; 18A)
[1]; [4]
  EC50: > 5.5 µM
[2]
  EC50: > 20 µM
[3]; [5]
  EC50: > 5.5 µM

## CCOC(=O)C1=C(C)NC2=C(C(=O)OC(c3ccc(Cl)cc3)C2)C1c1ccccc1Cl (stereo in doubt; 20A)
[1]; erythrocyte
  EC50: 0.51 µM
[2]
  EC50: > 20 µM
[3]; erythrocyte
  EC50: 0.56 µM

## CCOC(=O)C1=C(C)NC2=C(C(=O)OC(c3cccc(C)c3)C2)C1c1ccccc1Cl (stereo in doubt; 22A)
[1]; [4]
  EC50: > 5 µM
[2]
  EC50: > 20 µM
[3]; [5]
  EC50: > 5 µM

## CCOC(=O)C1=C(C)NC2=C(C(=O)OC(c3ccc(C)cc3)C2)C1c1ccccc1Cl (stereo in doubt; 23A)
[1]; [4]
  EC50: > 5 µM
[2]
  EC50: > 20 µM
[3]; erythrocyte
  EC50: > 5 µM

## CCOC(=O)C1=C(C)NC2=C(C(=O)OC(c3ccccc3OC)C2)C1c1ccccc1Cl (stereo in doubt; 24A)
[1]; [4]
  EC50: > 6 µM
[2]
  EC50: > 20 µM
[3]; [5]
  EC50: > 6 µM

## CCOC(=O)C1=C(C)NC2=C(C(=O)OC(c3cccc(OC)c3)C2)C1c1ccccc1Cl (stereo in doubt; 25A)
[1]; erythrocyte
  EC50: 2.13 µM
[2]
  EC50: > 20 µM
[3]; erythrocyte
  EC50: > 7 µM

## CCOC(=O)C1=C(C)NC2=C(C(=O)OC(c3ccc(OC)cc3)C2)C1c1ccccc1Cl (stereo in doubt; 26A)
[1]; erythrocyte
  EC50: > 7 µM
[2]
  EC50: > 20 µM
[3]; erythrocyte
  EC50: > 7 µM

## COc1ccc(C2CC(=O)C3=C(C2)NC(C)=C(C(=O)O)C3c2ccccc2Cl)cc1OC (stereo in doubt; 27A)
[1]; [4]
  EC50: > 15 µM
[2]
  EC50: > 20 µM

## COC(=O)C1=C(C)NC2=C(C(=O)OC(c3ccc(OC)c(OC)c3)C2)C1c1ccccc1Cl (stereo in doubt; 28A)
[1]; erythrocyte
  EC50: > 8.5 µM
[2]
  EC50: > 20 µM
[3]; erythrocyte
  EC50: > 8.5 µM

## CCCOC(=O)C1=C(C)NC2=C(C(=O)OC(c3ccc(OC)c(OC)c3)C2)C1c1ccccc1Cl (stereo in doubt; 29A)
[1]; erythrocyte
  EC50: 2.36 µM
[2]
  EC50: > 20 µM
[3]; erythrocyte
  EC50: > 7 µM

## COc1ccc(C2CC3=C(C(=O)O2)C(c2ccccc2Cl)C(C(=O)OC(C)(C)C)=C(C)N3)cc1OC (stereo in doubt; 30A)
[1]; [4]
  EC50: > 13 µM
[2]
  EC50: > 20 µM
[3]; erythrocyte
  EC50: > 13 µM

## COc1ccc(C2CC3=C(C(=O)O2)C(c2ccccc2Cl)C(C(=O)OCc2ccccc2)=C(C)N3)cc1OC (stereo in doubt; 31A)
[1]; [4]
  EC50: > 11.8 µM
[2]
  EC50: > 20 µM
[3]; [5]
  EC50: > 11.8 µM

## CCCC1=C(C(=O)OCC)C(c2ccccc2Cl)C2=C(CC(c3ccc(OC)c(OC)c3)OC2=O)N1 (stereo in doubt; 32A)
[1]; erythrocyte
  EC50: 0.811 µM
[2]
  EC50: > 20 µM
[3]; erythrocyte
  EC50: 0.418 µM

## CCOC(=O)C1=C(C(=O)OCC)C(c2ccccc2Cl)C2=C(CC(c3ccc(OC)c(OC)c3)OC2=O)N1 (stereo in doubt; 33A)
[1]; erythrocyte
  EC50: 0.0381 µM
[2]
  EC50: > 20 µM
[3]; erythrocyte
  EC50: 0.0136 µM

## CCOC(=O)C1=C(c2ccccc2)NC2=C(C(=O)CC(c3ccc(OC)c(OC)c3)C2)C1c1ccccc1Cl (stereo in doubt; 35A)
[1]; erythrocyte
  EC50: 3.72 µM
[2]
  EC50: > 20 µM
[3]; erythrocyte
  EC50: > 10.9 µM

## CCOC(=O)C1=C(C)NC2=C(C(=O)CC(c3ccc(OC)c(OC)c3)C2)C1c1ccc(Cl)cc1 (stereo in doubt; 36A)
[1]; erythrocyte
  EC50: 0.264 µM
[2]
  EC50: > 20 µM
[3]; erythrocyte
  EC50: 0.221 µM

## COCC1=C(C(=O)OC)C(c2ccc(Cl)cc2)C2=C(CC(c3cc(OC)c(OC)c(OC)c3)OC2=O)N1 (stereo in doubt; 56B)
[1]; erythrocyte
  EC50: 0.029 µM
[3]; erythrocyte
  EC50: 0.0423 µM

## CCN(CC)CCCC(C)Nc1ccnc2cc(Cl)ccc12 (stereo not given) [CHLOROQUINE]
[1]; [4]
  EC50: 0.048 µM
[3]; [5]
  EC50: 1.36 µM

## OC(c1cc(C(F)(F)F)nc2c(C(F)(F)F)cccc12)C1CCCCN1 (stereo not given) [MEFLOQUINE]
[1]; [4]
  EC50: 0.062 µM
[3]; [5]
  EC50: 0.031 µM

## COc1cc([C@@H]2c3cc4c(cc3[C@H](O)[C@H]3COC(=O)[C@H]23)OCO4)cc(OC)c1OC [PODOFILOX]
[2]
  EC50: 0.25 µM
